According to ChEMBL document CHEMBL3399937, “(18)F-AmBF3-MJ9: a novel radiofluorinated bombesin derivative for prostate cancer imaging” (Bioorg Med Chem, 2015):

Key:
Conditions in all cases: in vivo
Spleen [1] = assay: Biodistribution in spleen of NSG mouse xenografted with human PC-3 tumor at 0.37 to 0.74 MBq, iv after 1 hr by gamma counting analysis in presence of BAY86-7548; type: ADME, organism-based
Pancreas [2] = assay: Biodistribution in pancreas of NSG mouse xenografted with human PC-3 tumor at 0.37 to 0.74 MBq, iv after 1 hr by gamma counting analysis in presence of BAY86-7548; type: ADME, organism-based
[3] = Biodistribution in fat of NSG mouse xenografted with human PC-3 tumor at 0.37 to 0.74 MBq, iv after 1 hr by gamma counting analysis in presence of BAY86-7548; type: ADME, organism-based, Adipose tissue
Liver [4] = assay: Biodistribution in liver of NSG mouse xenografted with human PC-3 tumor at 0.37 to 0.74 MBq, iv after 1 hr by gamma counting analysis in presence of BAY86-7548; type: ADME, organism-based
Kidney = assay: Biodistribution in kidney of NSG mouse xenografted with human PC-3 tumor at 0.37 to 0.74 MBq, iv after 0.5 hrs by gamma counting analysis; type: ADME, organism-based
Brain = assay: Biodistribution in brain of NSG mouse xenografted with human PC-3 tumor at 0.37 to 0.74 MBq, iv after 1 hr by gamma counting analysis in presence of BAY86-7548; type: ADME, organism-based
Blood = assay: Biodistribution in blood of NSG mouse xenografted with human PC-3 tumor at 0.37 to 0.74 MBq, iv after 0.5 hrs by gamma counting analysis; type: ADME, organism-based
Mus musculus [5] = assay: Biodistribution in seminal gland of NSG mouse xenografted with human PC-3 tumor at 0.37 to 0.74 MBq, iv after 2 hrs by gamma counting analysis; type: ADME, organism-based
Mus musculus [6] = assay: Biodistribution in testis of NSG mouse xenografted with human PC-3 tumor at 0.37 to 0.74 MBq, iv after 0.5 hrs by gamma counting analysis; type: ADME, organism-based
Lung = assay: Biodistribution in lung of NSG mouse xenografted with human PC-3 tumor at 0.37 to 0.74 MBq, iv after 2 hrs by gamma counting analysis; type: ADME, organism-based
Pancreas [7] = assay: Biodistribution in pancreas of NSG mouse xenografted with human PC-3 tumor at 0.37 to 0.74 MBq, iv after 0.5 hrs by gamma counting analysis; type: ADME, organism-based
Mus musculus [8] = assay: Biodistribution in testis of NSG mouse xenografted with human PC-3 tumor at 0.37 to 0.74 MBq, iv after 1 hr by gamma counting analysis in presence of BAY86-7548; type: ADME, organism-based
Mus musculus [9] = assay: Biodistribution in adrenal gland of NSG mouse xenografted with human PC-3 tumor at 0.37 to 0.74 MBq, iv after 0.5 hrs by gamma counting analysis; type: ADME, organism-based
Mus musculus [10] = assay: Biodistribution in adrenal gland of NSG mouse xenografted with human PC-3 tumor at 0.37 to 0.74 MBq, iv after 2 hrs by gamma counting analysis; type: ADME, organism-based
Muscle tissue [11] = assay: Biodistribution in muscle of NSG mouse xenografted with human PC-3 tumor at 0.37 to 0.74 MBq, iv after 0.5 hrs by gamma counting analysis; type: ADME, organism-based
Tumour [12] = assay: Biodistribution in tumor of NSG mouse xenografted with human PC-3 tumor at 0.37 to 0.74 MBq, iv after 2 hrs by gamma counting analysis; type: ADME, organism-based, Neoplasm
Liver [13] = assay: Biodistribution in liver of NSG mouse xenografted with human PC-3 tumor at 0.37 to 0.74 MBq, iv after 1 hr by gamma counting analysis; type: ADME, organism-based
Bone [14] = assay: Biodistribution in bone of NSG mouse xenografted with human PC-3 tumor at 0.37 to 0.74 MBq, iv after 1 hr by gamma counting analysis; type: ADME, organism-based, Bone element
Mus musculus [15] = assay: Biodistribution in adrenal gland of NSG mouse xenografted with human PC-3 tumor at 0.37 to 0.74 MBq, iv after 1 hr by gamma counting analysis; type: ADME, organism-based
Bone [16] = assay: Biodistribution in bone of NSG mouse xenografted with human PC-3 tumor at 0.37 to 0.74 MBq, iv after 1 hr by gamma counting analysis in presence of BAY86-7548; type: ADME, organism-based, Bone element
[17] = Biodistribution in fat of NSG mouse xenografted with human PC-3 tumor at 0.37 to 0.74 MBq, iv after 0.5 hrs by gamma counting analysis; type: ADME, organism-based, Adipose tissue
Mus musculus [18] = assay: Biodistribution in adrenal gland of NSG mouse xenografted with human PC-3 tumor at 0.37 to 0.74 MBq, iv after 1 hr by gamma counting analysis in presence of BAY86-7548; type: ADME, organism-based
Tumour [19] = assay: Biodistribution in tumor of NSG mouse xenografted with human PC-3 tumor at 0.37 to 0.74 MBq, iv after 1 hr by gamma counting analysis; type: ADME, organism-based, Neoplasm
[20] = Biodistribution in fat of NSG mouse xenografted with human PC-3 tumor at 0.37 to 0.74 MBq, iv after 1 hr by gamma counting analysis; type: ADME, organism-based, Adipose tissue
Spleen [21] = assay: Biodistribution in spleen of NSG mouse xenografted with human PC-3 tumor at 0.37 to 0.74 MBq, iv after 0.5 hrs by gamma counting analysis; type: ADME, organism-based
Intestine = assay: Biodistribution in intestine of NSG mouse xenografted with human PC-3 tumor at 0.37 to 0.74 MBq, iv after 0.5 hrs by gamma counting analysis; type: ADME, organism-based
Mus musculus [22] = assay: Biodistribution in testis of NSG mouse xenografted with human PC-3 tumor at 0.37 to 0.74 MBq, iv after 1 hr by gamma counting analysis; type: ADME, organism-based
Mus musculus [23] = assay: Biodistribution in seminal gland of NSG mouse xenografted with human PC-3 tumor at 0.37 to 0.74 MBq, iv after 0.5 hrs by gamma counting analysis; type: ADME, organism-based
Muscle tissue [24] = assay: Biodistribution in muscle of NSG mouse xenografted with human PC-3 tumor at 0.37 to 0.74 MBq, iv after 2 hrs by gamma counting analysis; type: ADME, organism-based
Muscle tissue [25] = assay: Biodistribution in muscle of NSG mouse xenografted with human PC-3 tumor at 0.37 to 0.74 MBq, iv after 1 hr by gamma counting analysis in presence of BAY86-7548; type: ADME, organism-based
[26] = Biodistribution in fat of NSG mouse xenografted with human PC-3 tumor at 0.37 to 0.74 MBq, iv after 2 hrs by gamma counting analysis; type: ADME, organism-based, Adipose tissue
Tumour [27] = assay: Biodistribution in tumor of NSG mouse xenografted with human PC-3 tumor at 0.37 to 0.74 MBq, iv after 1 hr by gamma counting analysis in presence of BAY86-7548; type: ADME, organism-based, Neoplasm
Heart = assay: Biodistribution in heart of NSG mouse xenografted with human PC-3 tumor at 0.37 to 0.74 MBq, iv after 2 hrs by gamma counting analysis; type: ADME, organism-based

Drug uptake (Spleen [1]): 0.32 % ID/g | Drug uptake (Pancreas [2]): 0.42 % ID/g | Drug uptake [3]: 0.12 % ID/g | Drug uptake (Liver [4]): 1.05 % ID/g | Drug uptake (Kidney): 6.6 % ID/g | Drug uptake (Brain): 0.03 % ID/g | Drug uptake (Blood): 2.1 % ID/g | Drug uptake (Mus musculus [5]): 0.15 % ID/g | Drug uptake (Mus musculus [6]): 0.42 % ID/g | Drug uptake (Lung): 0.4 % ID/g | Drug uptake (Pancreas [7]): 8.04 % ID/g | Drug uptake (Mus musculus [8]): 0.25 % ID/g | Drug uptake (Mus musculus [9]): 1.16 % ID/g | Drug uptake (Mus musculus [10]): 0.29 % ID/g | Drug uptake (Muscle tissue [11]): 0.38 % ID/g | Drug uptake (Tumour [12]): 2.2 % ID/g | Drug uptake (Liver [13]): 0.78 % ID/g | Drug uptake (Bone [14]): 0.28 % ID/g | Drug uptake (Mus musculus [15]): 0.5 % ID/g | Drug uptake (Bone [16]): 0.25 % ID/g | Drug uptake [17]: 0.25 % ID/g | Drug uptake (Mus musculus [18]): 0.21 % ID/g | Drug uptake (Tumour [19]): 1.47 % ID/g | Drug uptake [20]: 0.07 % ID/g | Drug uptake (Spleen [21]): 1.08 % ID/g | Drug uptake (Intestine): 4.28 % ID/g | Drug uptake (Mus musculus [22]): 0.25 % ID/g | Drug uptake (Mus musculus [23]): 0.33 % ID/g | Drug uptake (Muscle tissue [24]): 0.03 % ID/g | Drug uptake (Muscle tissue [25]): 0.14 % ID/g | Drug uptake [26]: 0.05 % ID/g | Drug uptake (Tumour [27]): 0.54 % ID/g | Drug uptake (Heart): 0.06 % ID/g
Structure (SMILES): CC(C)C[C@H](NC(=O)C[C@H](O)[C@H](CC(C)C)NC(=O)[C@H](Cc1cnc[nH]1)NC(=O)CNC(=O)[C@@H](NC(=O)[C@H](C)NC(=O)[C@H](Cc1c[nH]c2ccccc12)NC(=O)[C@H](CCC(N)=O)NC(=O)[C@@H](Cc1ccccc1)NC(=O)CN1CCC(NC(=O)Cn2cc(C[N+](C)(C)C[B-](F)(F)[17F])nn2)CC1)C(C)C)C(N)=O
